{"source": "patent US10507215B2", "about": "“Compounds for the treatment of addiction” (Amygdala Neurosciences, Inc., priority 2011, dated 2019)", "format_in_all_cases": "in vivo", "key": {"Male SD rats [1]": {"tested_on": "Male SD rats", "experiment": "Rat nicotine self administration, acute treatment", "method": "Male SD rats were trained to self administer i.v. nicotine (0.03 mg/kg/inj) daily (Monday to Friday) in standard operant chambers with retractable levers (MED Associates, Inc) as previously published (Levin et al., 2003; Levin et al., 2007). During the daily 45 min session, rats received 0.05 ml infusion of 0.03 mg/kg/infusion of nicotine every time the active lever was pressed. A cue light and tone turned on for 0.5 sec together with the activation of a pump that delivered the nicotine solution. Daily sessions were run for at least 10 days before the initiation of drug testing. Solutions of compounds of Example 2 and Example 5 were prepared fresh daily in Formulation 2B: 25% PEG400/5% Vit E TPGS/1% SLS/69% water with 0.5% Methocel) for oral dosing. Compound of Example 2 doses were administered in a counterbalanced design for testing 1 hr before each nicotine session. Every rat received all drug doses and vehicle in a randomly assigned order. The oral drug administrations were made twice per week.\nCompound of Example 5 was tested in a study using 4 independent groups. Each group received either oral vehicle or 1 of the 3 doses of compound of Example 5 (5, 10 or 30 mg-eq/kg). […] The 5 mg/kg dose was ineffective."}, "Male SD rats [2]": {"tested_on": "Male SD rats", "experiment": "Rat nicotine self administration, 7-day chronic treatment", "settings": "7 consecutive days", "method": "Upon completion of the acute compound of Example 5 treatment study, the same animals were used to test the effect of 7-day chronic oral administration of compound of Example 5 in the nicotine self administration model. Rats were treated orally with compound of Example 5 (5, 10 or 30 mg-eq/kg) or vehicle 1 hr before nicotine self administration session for 7 consecutive days. […] Similar to the acute treatment, the 5 mg-eq/kg dose was ineffective (FIG. 7). […] Animals in nicotine self administration studies had to reach pre defined criteria (e.g. rat strain, minimum number of nicotine infusions, consistent baseline nicotine self administration throughout the study, patent iv catheters, etc.) to be included in analysis."}, "[3]": {"tested_on": "male Sprague Dawley (SD) rats", "experiment": "Rat cocaine cue reinstatement", "settings": "for inhibition of cocaine cue reinstatement vs vehicle: 1 hr before session", "method": "Training of male Sprague Dawley (SD) rats had 3 separate stages. First, during self administration, animals were trained to lever press for cocaine with presentation of concomitant cues associated with drug delivery. Rats that reached criteria for addiction were included in the study. Afterward, during cue extinction, cocaine-cue dependent behavior was extinguished. Lastly, during cocaine cue reinstatement, the effect of compounds was tested on lever presses upon cue presentation (FIG. 2).\nRats were trained to self administer i.v. cocaine (0.35 mg/kg/injection) daily (Monday to Friday) in standard operant chambers with retractable levers (Coulbourn Instruments, PA). During the daily 2 hr session, rats received a 0.05 ml infusion of 0.35 mg/kg cocaine every time the active lever was pressed. A cue light and tone turned on for 2 sec together with activation of a pump that delivered the cocaine solution. Rats were required to maintain an infusion rate of ≥20+ per day for at least 10 days before being moved to extinction training.\nDuring extinction sessions lever presses no longer produced cocaine infusion and cue light/tone presentation was absent. Rats received a maximum of 15 extinction sessions.\nOn the next day after reaching extinction criteria, rats were treated orally with vehicle (Formulation 2B: 25% PEG400/5% Vit E TPGS/1% SLS/69% water with 0.5% Methocel) or drug (compound of Example 2 or compound of Example 5) before the cue reinstatement session. Cue reinstatement began with a tone and cue light. This 2 hr session was identical to the self-administration session (cue light and tone present upon active lever press) except that no cocaine was delivered. The number of active lever presses was compared to extinction lever responding. This is considered a measure of reinstatement. The next day, rats were returned to extinction sessions for at least 2 or 3 more sessions. Rats then received a second and last reinstatement session with an opposite treatment to the one received on the first reinstatement session (vehicle or drug treatment). […] The light/tone presentation triggers this response and it is interpreted as a measure of reinstatement even though cocaine is not available."}}}
{"smiles": "O=C(NCc1ccc(-c2ccn(COP(=O)(O)O)c(=O)c2)cc1)c1c(Cl)cccc1Cl", "note": "[Compound 14, phosphoric acid mono-(4-{4-[(2,6-dichloro-benzoylamino)-methyl]-phenyl}-2-oxo-2H-pyridin-1-ylmethyl) ester]", "values": [{"measurement": "effect on number of nicotine infusions", "setting": "Male SD rats [1]; 5 mg/kg dose oral, independent groups", "value": "ineffective"}, {"measurement": "inhibition of number of nicotine infusions vs vehicle", "setting": "Male SD rats [1]; 10 mg-eq/kg oral, independent groups", "value": 51, "unit": "%"}, {"measurement": "inhibition of number of nicotine infusions vs vehicle", "setting": "Male SD rats [1]; 30 mg-eq/kg oral, independent groups", "value": 68, "unit": "%"}, {"measurement": "effect on number of nicotine infusions", "setting": "Male SD rats [2]; 5 mg-eq/kg oral", "value": "ineffective"}, {"measurement": "inhibition of number of nicotine infusions vs vehicle", "setting": "Male SD rats [2]; 10 mg-eq/kg oral", "value": 48, "unit": "%"}, {"measurement": "inhibition of number of nicotine infusions vs vehicle", "setting": "Male SD rats [2]; 30 mg-eq/kg oral", "value": 62, "unit": "%"}, {"measurement": "effect on cocaine cue reinstatement", "setting": "[3]; 2.5 mg-eq/kg oral, lowest dose tested", "value": "not significantly different from vehicle"}, {"measurement": "inhibition of cocaine cue reinstatement vs vehicle", "setting": "[3]; 2.5 mg/kg eq oral, N.S.", "value": 30, "unit": "%"}, {"measurement": "inhibition of cocaine cue reinstatement vs vehicle", "setting": "[3]; 5 mg-eq/kg oral", "value": 59, "unit": "%"}, {"measurement": "inhibition of cocaine cue reinstatement vs vehicle", "setting": "[3]; 10 mg-eq/kg oral", "value": 55, "unit": "%"}, {"measurement": "inhibition of cocaine cue reinstatement vs vehicle", "setting": "[3]; 30 mg-eq/kg oral", "value": 50, "unit": "%"}]}
{"smiles": "O=C(NCc1ccc(-c2cc[nH]c(=O)c2)cc1)c1c(Cl)cccc1Cl", "note": "[Compound 2, 2,6-dichloro-N-[4-(2-oxo-1,2-dihydro-pyridin-4-yl)-benzyl]-benzamide]", "values": [{"measurement": "effect on number of nicotine infusions", "setting": "Male SD rats [1]; 1 mg/kg oral", "value": "without effect"}, {"measurement": "effect on number of nicotine infusions", "setting": "Male SD rats [1]; 5 mg/kg oral", "value": "without effect"}]}
